Data reported in patent US20260041683A1, “Compounds with Anti-Acinetobacter Baumannii Activity” (University of Kentucky Research Foundation, priority 2022, published 2026).
Values after ≈ are worked out from the molar mass of the structure shown. Like-named read-outs stand apart in the source and are kept apart here.

Columns and labels:
Ab ATCC 19606 (strain I) = experiment: MIC determination (double dilution, Mueller-Hinton broth); type: cell-based, Acinetobacter baumannii; details: for MIC: Acinetobacter baumannii, ATCC19606
[1] = system: Ab ATCC BAA1605 (strain J, multidrug-resistant); experiment: MIC determination; type: cell-based; details: Acinetobacter baumannii
How it was run: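 Broth double-dilution MIC in Mueller-Hinton broth, 96-well plates, at least in duplicate. Inoculum: colonies grown overnight at 37 °C on MH plates, suspended to OD600 ~0.5 and diluted 1:1000 into serially doubly diluted compound.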

[2] = system: Ab strain #273 (CDC and FDA AR Bank); experiment: MIC determination; type: cell-based; details: Acinetobacter baumannii; Ab AR Bank #273
Description: (§1) All bacterial strains listed above were stored at −80° C. All strains were streaked on Mueller-Hinton (MH) plates and allowed to grow at 37° C. overnight. Enough colonies were scraped from the plate and suspended in MH broth with vortexing to reach an attenuance at 600 nm (OD600) of ˜0.5. The resulting culture was diluted 1:1000 and added to the prepared serially doubly diluted compound solutions in 96-well plates. For M. smegmatis, a 1:100 dilution of the bacteria was done in MH. All MIC values were determined using 96-well plates with low evaporation seals at least in duplicate. For each row, one well was reserved for sterile control (which consisted of 200 μL of MH medium) and another well was reserved for growth control (which consisted of 100 μL of MH medium seeded with 100 μL of bacterial culture).
(§2) Then all 46 compounds were tested against a broad panel of all 41 Ab strains from the CDC and FDA Antibiotic Resistance (AR) Isolate Bank (Table 2; data shown for 2 representative compounds), which were all highly multidrug-resistant strains, including those resistant to colistin. […] The activity of the monohydrazides was not dependent on the extent (number of resistance mutations) or severity (antibiotic MIC) of resistance. All conclusions made from Table 1 remained valid for all compounds against these 41 additional Ab strains. […] This mechanism of action will be elucidated in the proposed studies.

[3] = system: Ab strain #278 (CDC and FDA AR Bank); experiment: MIC determination; type: cell-based; details: Acinetobacter baumannii; Ab AR Bank #278
Description: as §1, §2

[4] = system: Ab strain #281 (CDC and FDA AR Bank); experiment: MIC determination; type: cell-based; details: Acinetobacter baumannii; Ab AR Bank #281
Description: as §1, §2

[5] = system: Ab strain #284 (CDC and FDA AR Bank); experiment: MIC determination; type: cell-based; details: Acinetobacter baumannii; Ab AR Bank #284
Description: as §1, §2

[6] = system: Ab strain #287 (CDC and FDA AR Bank); experiment: MIC determination; type: cell-based; details: Acinetobacter baumannii; Ab AR Bank #287
Description: as §1, §2

[7] = system: Ab strain #290 (CDC and FDA AR Bank); experiment: MIC determination; type: cell-based; details: Acinetobacter baumannii; Ab AR Bank #290
Description: as §1, §2

[8] = system: Ab strain #294 (CDC and FDA AR Bank); experiment: MIC determination; type: cell-based; details: Acinetobacter baumannii; Ab AR Bank #294
Description: as §1, §2

[9] = system: Ab strain #295 (CDC and FDA AR Bank); experiment: MIC determination; type: cell-based; details: Acinetobacter baumannii; Ab AR Bank #295
Description: as §1, §2

[10] = system: Ab strain #298 (CDC and FDA AR Bank); experiment: MIC determination; type: cell-based; details: Acinetobacter baumannii; Ab AR Bank #298
Description: as §1, §2

[11] = system: Ab strain #299 (CDC and FDA AR Bank); experiment: MIC determination; type: cell-based; details: Acinetobacter baumannii; Ab AR Bank #299
Description: as §1, §2

[12] = system: Ab strain #301 (CDC and FDA AR Bank); experiment: MIC determination; type: cell-based; details: Acinetobacter baumannii; Ab AR Bank #301
Description: as §1, §2

[13] = system: Ab strain #305 (CDC and FDA AR Bank); experiment: MIC determination; type: cell-based; details: Acinetobacter baumannii; Ab AR Bank #305
Description: as §1, §2

[14] = system: Ab strain #309 (CDC and FDA AR Bank); experiment: MIC determination; type: cell-based; details: Acinetobacter baumannii; Ab AR Bank #309
Description: as §1, §2

[15] = system: Ab strain #313 (CDC and FDA AR Bank); experiment: MIC determination; type: cell-based; details: Acinetobacter baumannii; Ab AR Bank #313
Description: as §1, §2

[16] = system: all 43 strains of A. baumannii (41 CDC strains and 2 ATCC strains); experiment: MIC value statistics for all A. baumannii strains; type: cell-based, Acinetobacter baumannii; details: of 43 A. baumannii strains
How it was run: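 Broth microdilution in MH broth against CDC AR Isolate Bank and ATCC strains. Inoculum from overnight MH plates (37 °C), suspended to OD600 ~0.5, then diluted 1:1000 into serial twofold compound dilutions. Sterile and growth controls included per row.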

[17] = Table 1, control strain, read-out: MIC Ab ATCC 19606
[18] = Table 1, multidrug-resistant strain, read-out: MIC Ab ATCC BAA 1605

O=C(NNc1cccc(F)c1)c1cnccn1 [Compound 9a]
MIC (Ab ATCC 19606 (strain I); [17]): 0.5 µg/mL (≈ 2.15 µM) | MIC [1, 18]: 0.5 µg/mL (≈ 2.15 µM) | MIC [2]: 1 µg/mL (≈ 4.31 µM) | MIC [3]: 1 µg/mL (≈ 4.31 µM) | MIC [4]: 0.5 µg/mL (≈ 2.15 µM) | MIC [5]: 0.5 µg/mL (≈ 2.15 µM) | MIC [6]: 0.5 µg/mL (≈ 2.15 µM) | MIC [7]: 1 µg/mL (≈ 4.31 µM) | MIC [8]: ≤ 0.13 µg/mL | MIC [9]: ≤ 0.13 µg/mL | MIC [10]: 0.5 µg/mL (≈ 2.15 µM) | MIC [11]: 0.25 µg/mL (≈ 1.08 µM) | MIC [12]: 0.25 µg/mL (≈ 1.08 µM) | MIC [13]: 0.5 µg/mL (≈ 2.15 µM) | MIC [14]: 0.5 µg/mL (≈ 2.15 µM) | MIC [15]: 0.25 µg/mL (≈ 1.08 µM) | number of compound/strain combinations with MIC value 0.25 μg/mL [16]: 11 | number of compound/strain combinations with MIC value 0.5 μg/mL [16]: 18 | number of compound/strain combinations with MIC value 1 μg/mL [16]: 10 | number of compound/strain combinations with MIC value ≤0.125 μg/mL [16]: 4

O=C(NNc1ccc(Cl)cc1)c1ccc(F)cn1 [Compound 3e]
MIC (Ab ATCC 19606 (strain I); [17]): 1 µg/mL (≈ 3.76 µM) | MIC (Ab ATCC 19606 (strain I); Table 5, Mueller-Hinton medium, I = A. baumannii ATCC 19606, read-out: MIC strain I): 1 µg/mL (≈ 3.76 µM) | MIC under conditions used to generate biofilm (Ab ATCC 19606 (strain I); trypticase soy broth (TSB) medium): 0.5 µg/mL (≈ 1.88 µM) | MIC [1, 18]: 0.0625 µg/mL (≈ 0.235 µM) | MIC ([1]; Table 5, Mueller-Hinton medium, J = A. baumannii BAA1605, read-out: MIC strain J): ≤ 0.125 µg/mL | MIC [2]: 0.5 µg/mL (≈ 1.88 µM) | MIC [3]: 0.25 µg/mL (≈ 0.941 µM) | MIC [4]: 0.5 µg/mL (≈ 1.88 µM) | MIC [5]: 0.25 µg/mL (≈ 0.941 µM) | MIC [6]: 0.13 µg/mL (≈ 0.489 µM) | MIC [7]: 0.125 µg/mL (≈ 0.47 µM) | MIC [8]: 0.25 µg/mL (≈ 0.941 µM) | MIC [9]: 0.06 µg/mL (≈ 0.226 µM) | MIC [10]: 0.25 µg/mL (≈ 0.941 µM) | MIC [11]: 0.13 µg/mL (≈ 0.489 µM) | MIC [12]: 0.25 µg/mL (≈ 0.941 µM) | MIC [13]: 0.5 µg/mL (≈ 1.88 µM) | MIC [14]: 0.25 µg/mL (≈ 0.941 µM) | MIC [15]: 0.25 µg/mL (≈ 0.941 µM) | number of compound/strain combinations with MIC value 0.25 μg/mL [16]: 16 | number of compound/strain combinations with MIC value 0.5 μg/mL [16]: 10 | number of compound/strain combinations with MIC value 1 μg/mL [16]: 1 | number of compound/strain combinations with MIC value ≤0.125 μg/mL [16]: 16
